From patent US8592370B2, “Combination of insulin with triazine derivatives” (Poxel S.A.S., priority 2008, dated 2013)

Tests used:
[1] = system: hyperglycemic and hypoinsulinemic Type 1 rat models (Streptozotocin); assay: Fasting plasma glucose in STZ Type 1 rat model, insulin pellets with or without EMD; type: in vivo
Procedure: (§1) The study was performed in hyperglycemic and hypoinsulinemic Type 1 rat models obtained by injection of high dose of Streptozotocin (STZ). Male Wistar rats (Charles River) were treated with STZ at 62.5 mg/kg IP. Rats were screened for baseline glucose levels three days after STZ injection. The animals with glucose levels below 35-40 mmol/l were excluded from this study. After selection, pellets of insulin were subcutaneously implanted (1+½ implants) at day 3. The release rate for each implant was 2 U per 24 h. In these experimental conditions each rat was infused with 3 U per 24 h of insulin for 40 days approximately (Limplant LINSHIN CANADA). 5,6-dihydro-4-dimethylamino-2-imino-6-methyl-1,3,5-triazine was orally administered at two doses, 75 and 150 mg/kg b.i.d., 10 days after induction of diabetes. Further experimental details are known to the skilled artisan, e.g. by the disclosure of WO 2003/092726, and can be easily modified as a matter of routine.

[2] = system: hyperglycemic and hypoinsulinemic Type 1 rat models (Streptozotocin); assay: Oral glucose tolerance test (OGTT), plasma glucose after 36 days of treatment; type: in vivo; details: insulin alone
Procedure: as §1
The determination how quickly administered glucose is cleared form the blood was conducted by means of a glucose tolerance test. The glucose was orally given; so the common test was technically an oral glucose tolerance test (OGTT), which is well-known to the skilled artisan. The laboratory animal was fasting for 18 hours before it was administered a glucose solution. Blood was drawn at intervals (cf. Table 3) for measurement of glucose (blood sugar), and additionally insulin levels were measured to detect the degree of IR or deficiency, respectively. For diabetes screening, the most important sample is the 2 hour sample, whose blood sugar value is enhanced at mammals with diminished insulin secretion or IR.

Molecule | Fasting plasma glucose ([1]; EMD 75 mg/kg b.i.d. oral + insulin pellets 3 U per 24 h, day 36) [mmol/L] | Fasting plasma glucose ([1]; EMD 150 mg/kg b.i.d. oral + insulin pellets 3 U per 24 h, day 36) [mmol/L] | OGTT plasma glucose ([2]; 0 min) [mmol/L] | OGTT plasma glucose ([2]; 10 min) [mmol/L] | OGTT plasma glucose ([2]; 20 min) [mmol/L] | OGTT plasma glucose ([2]; 30 min) [mmol/L] | OGTT plasma glucose ([2]; 45 min) [mmol/L] | OGTT plasma glucose ([2]; 60 min) [mmol/L] | OGTT plasma glucose ([2]; 90 min) [mmol/L] | OGTT plasma glucose ([2]; 120 min) [mmol/L] | Fasting plasma glucose ([1]; insulin pellets 3 U per 24 h alone, day 0 (before treatment)) [mmol/L] | Fasting plasma glucose ([1]; insulin pellets 3 U per 24 h alone, day 8) [mmol/L] | Fasting plasma glucose ([1]; insulin pellets 3 U per 24 h alone, day 15) [mmol/L] | Fasting plasma glucose ([1]; insulin pellets 3 U per 24 h alone, day 22) [mmol/L] | Fasting plasma glucose ([1]; insulin pellets 3 U per 24 h alone, day 36) [mmol/L] | Fasting plasma glucose ([1]; insulin pellets 3 U per 24 h alone, day 36, listed as insulin pellets) [mmol/L]
CC1NC(=N)N=C(N(C)C)N1 (stereo not shown) [EMD, 5,6-dihydro-4-dimethylamino-2-imino-6-methyl-1,3,5-triazine] | 18.86 ± 2.77 | 14.85 ± 2.03 | – | – | – | – | – | – | – | – | – | – | – | – | – | –
control + insulin: subcutaneously implanted insulin pellets releasing 3 U per 24 h (Limplant LINSHIN CANADA); insulin alone group | – | – | 21.46 | 22.73 | 26.98 | 27.83 | 28.04 | 25.59 | 20.35 | 16.91 | 33.20 | 17.22 | 11.25 | 16.66 | 21.46 | 21.46 ± 3.1
